The values below are quoted from earlier work in patent US20100119604A1, “Solid drug formulation and device for storage and controlled delivery thereof” (BOSTON SCIENTIFIC SCIMED, INC., priority 2003, published 2010).

Counter-ions that a name gives are not always drawn.

For this data set the following is noted: daily exposure limit of excipient / residual solvent per ICH Guideline Q3C.
For `CN1CCCC1=O` [N-Methylpyrrolidone], the “Daily limit” value was 5.3 mg.
In the case of `c1ccc2c(c1)CCCC2` [Tetralin], the “Daily limit” value was 1.0 mg.
Regarding `COCCO` [2-Methoxyethanol], the “Daily limit” value is listed as 0.5 mg.
For the compound `CN(C)C=O` [N,N-Dimethylformamide], the “Daily limit” value is 8.8 mg.
For Xylene, the “Daily limit” value is 21.7 mg.
As for `ClCCl` [Dichloromethane], the “Daily limit” value is on record as 6.0 mg.
With `OCCO` [Ethyleneglycol], the “Daily limit” value is reported as 6.2 mg.
For `CCCCCCC` [Heptane], the “Daily limit” value is 50 mg.
Take `NC=O` [Formamide]: the “Daily limit” value is 2.2 mg.
For `C[S+](C)[O-]` [Dimethyl sulfoxide], the “Daily limit” value was 50 mg.
As to `CCCO` [Formulation 1-Propanol, 1-Propanol], the “Daily limit” value is given as 50 mg.
With `CC(C)=O` [Acetone], the “Daily limit” value was 50 mg.
As for `CCCOC(C)=O` [Propyl acetate], the “Daily limit” value is 50 mg.
Consider `COc1ccccc1` [Anisole], for which the “Daily limit” value is recorded as 50 mg.
As to `CCOC=O` [Ethyl formate], the “Daily limit” value is recorded as 50 mg.
Take `CCC(C)O` (stereo not shown) [Formulation 2-Butanol, 2-Butanol]: the “Daily limit” value is on record as 50 mg.
In the case of `CCOCCO` [2-Ethoxyethanol], the “Daily limit” value is 1.6 mg.
As for `ClC(Cl)(Cl)Cl` [Carbon tetrachloride], the “Daily limit” value is given as 0.04 mg.
As for `O=CO` [Formic acid], the “Daily limit” value is 50 mg.
`CCCCCC` [Hexane]: the “Daily limit” value is recorded as 2.9 mg.
Take `COC(C)=O` [Methyl acetate]: the “Daily limit” value is listed as 50 mg.
For `CCCCOC(C)=O` [Butyl acetate], the “Daily limit” value is 50 mg.
Turning to `c1ccncc1` [Pyridine], the “Daily limit” value was 2.0 mg.
Turning to `COC(C)(C)C` [tert-Butylmethyl ether], the “Daily limit” value is given as 50 mg.
On to `c1ccccc1` [Benzene], for which the “Daily limit” value is reported as 0.02 mg.
For `CCCCCO` [Formulation 1-Pentanol, 1-Pentanol], the “Daily limit” value is on record as 50 mg.
For the compound `C[N+](=O)[O-]` [Nitromethane], the “Daily limit” value is 0.5 mg.
Turning to `CCCCC(C)=O` [Methylbutyl ketone], the “Daily limit” value was 0.5 mg.
Regarding `Clc1ccccc1` [Chlorobenzene], the “Daily limit” value was 3.6 mg.
Take `ClCCCl` [1,2-Dichloroethane]: the “Daily limit” value is reported as 0.05 mg.
As for `COCCOC` [1,2-Dimethoxyethane], the “Daily limit” value was 1.0 mg.
With `CC(=O)CC(C)C` [Methylisobutyl ketone], the “Daily limit” value is reported as 50 mg.
Regarding `CCO` [Ethanol], the “Daily limit” value is 50 mg.
Regarding `CC(Cl)(Cl)Cl` [1,1,1-Trichloroethane], the “Daily limit” value is 15 mg.
With `CCOCC` [Ethyl ether], the “Daily limit” value was 50 mg.
Take `C1CCOC1` [Tetrahydrofuran]: the “Daily limit” value is 7.2 mg.
`C1CCCCC1` [Cyclohexane]: the “Daily limit” value is 38.8 mg.
As to `CC1CCCCC1` [Methylcyclohexane], the “Daily limit” value is 11.8 mg.
Regarding `CC#N` [Acetonitrile], the “Daily limit” value was 4.1 mg.
With `CC(C)c1ccccc1` [Cumene], the “Daily limit” value was 50 mg.
Consider `ClC=C(Cl)Cl` [1,1,2-Trichloroethene], for which the “Daily limit” value is recorded as 0.8 mg.
As to `C=C(Cl)Cl` [1,1-Dichloroethene], the “Daily limit” value was 0.08 mg.
On to `CC(=O)O` [Acetic acid], for which the “Daily limit” value is 50 mg.
